{
  "source": "patent US8153593B2",
  "about": "“Transglutaminase inhibitors and methods of use thereof” (The Board of Trustees of the Leland Stanford Junior …, priority 2003, dated 2012)",
  "test_system": "DBT cells",
  "experiment": "Clonogenic radiosensitizer assay",
  "format": "cell-based, murine",
  "experimental": "FIG. 2: KCC009 as a radiosensitizer. Cultured DBT cells were treated with radiation alone (3.2 Gy) (left) or radiation plus 0.5 mM KCC009 (right), and plated on soft agar to evaluate cell viability.\nIn addition to evaluating the chemosensitizing potential of KCC009, this compound's potential as a radiosensitizer was also evaluated. For this clonogenic assays were used to measure colony formation after a single radiation treatment. The studies were performed in triplicate with varying doses of XRT and number of cells plated. […] A representative photo of a clonogenic assay plate treated with X-ray alone compared with a plate pre-treated with 0.5 mM KCC009 plus X-ray is shown in FIG. 2.",
  "data": [
    {"smiles": "O=C(N[C@@H](Cc1ccc(O)cc1)C(=O)NCC1CC(Br)=NO1)OCc1ccccc1", "note": "(some centres unmarked) [Compound 59]", "values": [
      {"measurement": "enhancement of cell death in response to radiation", "setting": "0.5 mM KCC009, 3.2 Gy X-ray", "value": "two orders of magnitude"},
      {"measurement": "effect of KCC009 alone on cell viability", "setting": "at corresponding concentrations, no radiation", "value": "does not affect cell viability"}
    ]}
  ]
}
